The subject of experiment [1] is patient-derived xenografts refractory to gemcitabine. The experiment is described as follows: Pre-clinical second-line study in xenografts refractory to gemcitabine (TGI). The settings on record: for tumor volume change: second-line molecular mimicry choice (docetaxel). The format is in vivo, mice. The protocol:
FIG. 11 illustrates a pre-clinical design.
FIG. 12 illustrates validation on the xenografts of FIG. 11 based on prediction according to the present invention. Four xenograft cases were used. […] A case is defined as a responder to the drug treatment if Tumor Growth Inhibition (TGI) is <20%. Negative TGI values indicate tumor regression.
(§1) Relative tumor growth index (TGI) was calculated as TGI=(Ti−T0/Ci−C0) if Ti>T0 (indicates tumor growth inhibition) and TGI=(Ti−T0) if Ti≦T0 (indicates tumor regression). T and C represent tumor size in the treated and control group at the last of experiment, respectively; T0 and C0 represent tumor size in the treated and control group at the start of treatment, respectively.
Seven FDA approved anticancer agents (capecitabine, cisplatin, docetaxel, doxorubicin, etoposide, irinotecan and oxaliplatin) were used as potential second line of drugs for selection according to the present invention. The one-size-fits-all treatment was erlotinib, an FDA approved targeted therapy for advanced pancreatic cancer. See Moore M J, Goldstein D, Hamm J, et al. Erlotinib plus gemcitabine compared with gemcitabine alone in patients with advanced pancreatic cancer: a phase Ill trial of the National Cancer Institute of Canada Clinical Trials Group. J Clin Oncol 25:1960-06 2007. […] Xenograft models of these cases were randomly assigned to (i) control, (ii) erlotinib arm (one-size-fits-all second line treatment) and (iii) molecular mimicry arm (i.e., drug selection according to the present invention). For the molecular mimicry arm, the baseline gene expression profiles of these cases were connected the NCI reference panel using GS-CMAP, and one of the seven anticancer agents was assigned to the case based on comparing the GI50 among these drugs. Molecular mimicry predicted that JH033 and JH034 are sensitive to docetaxel, PANC185 is sensitive to irinotecan and PANC219 is sensitive to doxorubicin. These cases were treated with the molecular mimicry choice of drugs and tumor volumes were measured. At the end of the experiment, xenografts treated with molecular mimicry choice of drugs had higher tumor growth inhibition than their litter mates treated with erlotinib (FIGS. 12 and 13).

Experiment [2] concerns direct-patient pancreatic cancer xenografts. The experiment is described as follows: Xenograft treatment, relative tumor growth inhibition (TGI). The experiment is classed as in vivo, mice.
From the text: Four- to six-week-old female athymic (nu/nu) mice were purchased from Harlan (Harlan Laboratories, Washington, D.C.). The research protocol was approved by the Johns Hopkins University Animal Use and Care Committee and animals were maintained in accordance to guidelines of the American Association of Laboratory Animal Care. Xenografts obtained from F1 mice were excised and cut into small ˜3×3×3 mm fragments and then implanted subcutaneously in a group of five to six mice for each patient, with two small fragments in each mouse (F2) as described above for the original carcinoma. Half of the rest of the carcinoma was cryopreserved in liquid nitrogen and the other half is processed for biological studies. When the carcinoma reached a size of 1,500 mm^3, they were excised, cut into ˜3×3×3 mm fragments, and transplanted to the final cohort of mice to be treated with the drugs (F3 and successive passages). Further details of the establishment of the direct-patient pancreatic cancer xenografts are described in Rubio-Viqueira B, Jimeno A, Cusatis G, et al. An In vivo Platform for Translational Drug Development in Pancreatic Cancer. Clin Cancer Res 2006 12:4652-61.
Gemcitabine (Eli Lilly, Indianapolis, Ind.) was dissolved in saline. In some embodiments, docetaxel (Sanofi-Aventis, Bridgewater, N.J.) was dissolved in 50% ethanol and 50% DMSO. In other embodiments, docetaxel (Sanofi-Aventis, Bridgewater, N.J.) was dissolved in ethanol/polysorbate 80 as a stock solution and diluted 10-fold in 5% glucose for in vivo studies. Temsirolimus (Wyeth Research, Colleville, Pa.) was dissolved in 10% ethanol, 10% pluronic, and 80% PBS. All drugs were freshly prepared and used at an injection volume of 0.2 mL/20 g body weight. Drug doses and treatment schedules were obtained from published studies.
Xenografts from this second mouse-to-mouse passage (F3) were allowed to grow to a size of ˜200 mm^3, at which time five-to-six mice were randomly assigned to control and treatment groups. […] For docetaxel treatment group, mice were treated with 20 mg/kg once a week via intraperitoneal injection. For temsirolimus treatment group, mice were treated with 20 mg/kg/day via intraperitoneal injection. Mice were treated for 21-28 days, monitored daily for signs of toxicity, and were weighed thrice a week. Tumor size was evaluated thrice a week by caliper measurements using the following formula: tumor volume=[length×width^2]/2 as reported by van de Vijver M J, He Y D, van't Veer L J, et al. A Gene-Expression Signature as a Predictor of Survival in Breast Cancer. N Engl J Med 2002 347:1999-2009.
as §1

SMILES strings stand for the structures.

Regarding `CC(=O)O[C@@]12CO[C@@H]1C[C@H](O)[C@@]1(C)C(=O)[C@H](O)C3=C(C)[C@@H](OC(=O)[C@H](O)[C@@H](NC(=O)OC(C)(C)C)c4ccccc4)C[C@@](O)([C@@H](OC(=O)c4ccccc4)[C@H]21)C3(C)C` [docetaxel], the tumor volume change result in experiment [1] (xenograft JH033) and in experiment [1] (xenograft JH034) was “Regression in tumor volume” throughout. In addition, the “xenograft response (sensitive/resistant)” value was “resistant” in experiment [2] (xenograft PANC185, docetaxel); “resistant” in experiment [2] (xenograft PANC215, docetaxel); “sensitive” in experiment [2] (xenograft PANC265, docetaxel). Moreover, the TGI in experiment [2] (xenograft PANC185, docetaxel for 21 days) was 83%; in experiment [2] (xenograft PANC215, docetaxel for 21 days), 41%; in experiment [2] (xenograft PANC265, docetaxel for 21 days) it was −79%.
With `C#Cc1cccc(Nc2ncnc3cc(OCCOC)c(OCCOC)cc23)c1` [erlotinib], in experiment [1] (four xenograft cases (PANC185, PANC219, JH033, JH034)), the “median TGI” value was 33%. Moreover, the “mean TGI %” value in experiment [1] (four xenograft cases, second-line arm) came to 30%. In experiment [1] (of four xenograft cases, second-line treatment), the “responders (TGI <20%)” value is given as “only one xenograft responded”.
Take `CO[C@H]1C[C@@H]2CC[C@@H](C)[C@@](O)(O2)C(=O)C(=O)N2CCCC[C@H]2C(=O)O[C@H]([C@H](C)C[C@@H]2CC[C@@H](OC(=O)C(C)(CO)CO)[C@H](OC)C2)CC(=O)[C@H](C)/C=C(\C)[C@@H](O)[C@@H](OC)C(=O)[C@H](C)C[C@H](C)/C=C/C=C/C=C/1C` [temsirolimus]: the TGI in experiment [2] (xenograft JH024, after temsirolimus treatment) is 94%; in experiment [2] (xenograft PANC219, after temsirolimus treatment), −23%. Besides, the “xenograft response (sensitive/resistant)” value in experiment [2] (xenograft JH024, temsirolimus) is “resistant”; in experiment [2] (xenograft PANC219, temsirolimus), “sensitive”.

These data come from patent US20090221522A1, “METHODS TO CORRECT GENE SET EXPRESSION PROFILES TO DRUG SENSITIVITY” (The Johns Hopkins University, priority 2008, published 2009).
